Data published in patent publication US20120157377A1, “METHODS TO ENHANCE NIGHT VISION AND TREATMENT OF NIGHT BLINDNESS” (priority 2012, published 2012).

Experiments:
humans = assay: Case reports: ophthalmic drops instilled into the conjunctival sac for night vision and night blindness; details: micro doses in the ophthalmic drops
[1] = cited from earlier work
mice = details: cited from earlier work

Row | Structure (SMILES) | hallucinogenic or other ill effect (humans) | red fluorescence (>640 nm) of eyes versus control mice ([1]; intravenously injected chlorin e6) | fluorescence emission of removed eyes (uptake by the retina) ([1]; mice, 2.00 mg per kilogram body weight intravenously, one hour after administration) | persistence of deposits in the photoreceptors ([1]; mice, intravenous chlorin e6) | neural impulse generation in the retina in response to amber light (mice; in the presence of chlorin e6) | neural impulse generation in the retina in response to red and blue light (mice; in the presence of chlorin e6) | electroretinographic amplitudes in response to red and blue light (mice; mice administered chlorin e6)
1 | CNC1(c2ccccc2Cl)CCCCC1=O (stereo not shown) [ketamine] | no hallucinogenic or other ill effect |  |  |  |  |  | 
2 | C=Cc1c(C)c2cc3nc(c(CC(=O)O)c4[nH]c(cc5nc(cc1[nH]2)C(C)=C5CC)c(C)c4C(=O)O)[C@@H](CCC(=O)O)[C@@H]3C (relative stereo) [chlorin e6] |  | three times more red fluorescence | strong emission band of red florescence centered at 675 nm | remained in the photoreceptors for three hours post administration | not amber light | almost two-fold increase | two-fold greater
